Patent US20110251379A1, “COMPOUNDS USEFUL FOR TREATING NEURODEGENERATIVE DISORDERS” (Satori Pharmaceuticals, Inc., priority 2010, published 2011)
Like-named read-outs stand apart in the source and are kept apart here.

Columns and labels:
Type in all cases: cell-based
[1] = test system: Aβ-42; experiment: MSD Human (6E10) Ab 3-PLEX elisa, conditioned media of 2B7 cells: Aβ-42; conditions: for inhibition at 20 µM: Aβ-42, 20 μM
In short: (§1)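 Read-out is MSD electrochemiluminescence of secreted Aβ peptides in 2B7 conditioned media after 5 hours of compound exposure at 37° C in 1% DMSO. Concentrations come from seven-point standard curves, and IC50 values from 4-parameter fits of percent vehicle.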

[2] = test system: Aβ-40; experiment: MSD Human (6E10) Ab 3-PLEX elisa, conditioned media of 2B7 cells: Aβ-40
In short: as §1

[3] = test system: Aβ-38; experiment: MSD Human (6E10) Ab 3-PLEX elisa, conditioned media of 2B7 cells: Aβ-38; conditions: for inhibition at 20 µM: Aβ-38, 20 μM
In short: as §1

[4] = Homo sapiens, Aβ-42 (superscript c), read-out: 50% reduction value
[5] = Homo sapiens, Aβ-42 (superscript c), read-out: IC50 range
[6] = Homo sapiens, Aβ-40 (superscript b), read-out: 50% reduction value
[7] = Homo sapiens, Aβ-40 (superscript b), read-out: IC50 range
[8] = Homo sapiens, Aβ-38 (superscript a), read-out: 50% reduction value
[9] = Homo sapiens, Aβ-38 (superscript a), read-out: IC50 range
[10] = Aβ-42 (superscript c), read-out: 50% reduction value
[11] = Aβ-40 (superscript b), read-out: 50% reduction value
[12] = Aβ-40 (superscript b), read-out: IC50 range
[13] = Aβ-38 (superscript a), read-out: 50% reduction value

SMILES | IC50 [1, 4] | IC50 [2, 6] | IC50 [3, 8] | inhibition at 20 µM ([1]; Homo sapiens) | inhibition at 20 µM ([2]; Homo sapiens, Aβ-40, 20 μM) | further results
CCO[C@@H]([C@H]1C[C@@H](C)[C@H]2[C@H](O1)[C@H](O)[C@@]1(C)C3CC[C@H]4C(C)(C)C(OC(=O)NC5CNC5)CC[C@@]45C[C@@]35CC[C@]21C)C(C)(C)O (stereo partly shown) | < 1000 nM | 1000 to 10000 nM | < 1000 nM | – | – | IC50 [1, 5]: < 1000 nM; IC50 [2, 7]: > 10000 nM
CC(=O)OC[C@@]1(C)C[C@@H](C)[C@H]2C(O1)[C@H](O)[C@@]1(C)C3CC[C@H]4C(C)(C)C(O)CC[C@@]45C[C@@]35CC[C@]21C (stereo partly shown) | > 10000 nM | 1000 to 10000 nM | 1000 to 10000 nM | – | – | –
CCOC(=O)CO[C@@H]([C@H]1C[C@@H](C)[C@H]2[C@H](O1)[C@H](O)[C@@]1(C)C3CC[C@H]4C(C)(C)[C@@H](O[C@H]5CN(C6COC6)CCO5)CC[C@@]45C[C@@]35CC[C@]21C)C(C)(C)O (stereo partly shown) | – | > 10000 nM | – | 25 to 75% | – | inhibition at 20 µM ([3]; Homo sapiens): 25 to 75%
CC(C)CC(=O)OCC1C[C@@H](C)[C@H]2C(O1)[C@H](O)[C@@]1(C)C3CC[C@H]4C(C)(C)[C@@H](O[C@H]5CN(C6COC6)CCO5)CC[C@@]45C[C@@]35CC[C@]21C (stereo partly shown) | – | – | 1000 to 10000 nM | 25 to 75% | 25 to 75% | –
CNC(=O)O[C@H](C(C)C)C1C[C@@H](C)[C@H]2C(O1)[C@H](O)[C@@]1(C)C3CC[C@H]4C(C)(C)[C@@H](O)CC[C@@]45C[C@@]35CC[C@]21C (stereo partly shown) | – | – | 1000 to 10000 nM | – | – | 50% reduction value ([1]; Aβ-42 (superscript c)): G/H; 50% reduction value ([2]; Aβ-40 (superscript b)): H/I; IC50 [3, 9]: < 1000 nM
CS[C@@H](C1C[C@@H](C)[C@H]2C(O1)[C@H](O)[C@@]1(C)C3CC[C@H]4C(C)(C)C(O)CC[C@@]45C[C@@]35CC[C@]21C)C(C)(C)O (stereo partly shown) | 1000 to 10000 nM | > 10000 nM | < 1000 nM | – | – | –
CNC(=O)OCC1C[C@@H](C)[C@H]2C(O1)[C@H](O)[C@@]1(C)C3CC[C@H]4C(C)(C)[C@@H](O)CC[C@@]45C[C@@]35CC[C@]21C (stereo partly shown) | 1000 to 10000 nM | – | 1000 to 10000 nM | – | 25 to 75% | inhibition at 20 µM ([3]; Homo sapiens): 25 to 75%
CC(C)CO[C@@H](C1C[C@@H](C)[C@H]2C(O1)[C@H](O)[C@@]1(C)C3CC[C@H]4C(C)(C)C(O[C@H]5CN(C6COC6)CCO5)CC[C@@]45C[C@@]35CC[C@]21C)C(C)(C)O (stereo partly shown) | 1000 to 10000 nM | 1000 to 10000 nM | < 1000 nM | – | – | IC50 [2, 7]: 1000 to 10000 nM; IC50 [3, 9]: < 1000 nM
CC(=O)O[C@@H]([C@H]1C[C@@H](C)C2C(O1)C(=O)[C@@]1(C)[C@@H]3CC[C@H]4C(C)(C)[C@@H](O[C@@H]5OC[C@@H](O)[C@H](O)[C@H]5O)CC[C@@]45C[C@@]35CC[C@]21C)C(C)(C)O (stereo partly shown) [drawing 1230] | > 10000 nM | 1000 to 10000 nM | 1000 to 10000 nM | – | – | IC50 [1, 5]: < 1000 nM; IC50 [3, 9]: 1000 to 10000 nM
CO[C@H](C(C)C)C1C[C@@H](C)[C@H]2C(O1)[C@H](O)[C@@]1(C)C3CC[C@H]4C(C)(C)[C@@H](O)CC[C@@]45C[C@@]35CC[C@]21C (stereo partly shown) | – | > 10000 nM | 1000 to 10000 nM | 25 to 75% | – | –
CC(C)CC(=O)OC(C1CC(C)C2C(O1)C(O)C1(C)C3CCC4C(C)(C)C(OC5CN(C6COC6)CCO5)CCC45CC35CCC21C)C(C)(C)O (stereo not shown) | – | – | – | – | – | IC50 [1, 10]: 1000 to 10000 nM; IC50 ([1]; Aβ-42 (superscript c), read-out: IC50 range): 1000 to 10000 nM; IC50 [2, 11]: 1000 to 10000 nM; IC50 [2, 12]: 1000 to 10000 nM; IC50 range (nM) ([3]; Aβ-38 (superscript a)): A- B; IC50 [3, 13]: 1000 to 10000 nM
CCO[C@@H](C1C[C@@H](C)[C@H]2C(O1)[C@H](O)[C@@]1(C)C3CC[C@H]4C(C)(C)C(OC(=O)NC5CCNC5=O)CC[C@@]45C[C@@]35CC[C@]21C)C(C)(C)O (stereo partly shown) [drawing 1289] | < 1000 nM | 1000 to 10000 nM | < 1000 nM | – | – | IC50 [1, 5]: < 1000 nM; IC50 [2, 12]: 1000 to 10000 nM
CC(=O)O[C@@H]([C@H]1C[C@@H](C)C2C(O1)[C@H](O)[C@@]1(C)[C@@H]3CC[C@H]4C(C)(C)[C@@H](O)CC[C@@]45C[C@@]35CC[C@]21C)C(C)(C)O (stereo partly shown) [drawing 1231] | 1000 to 10000 nM | – | 1000 to 10000 nM | – | 25 to 75% | –
CO[C@@H]([C@H]1C[C@@H](C)[C@H]2[C@H](O1)[C@H](OC)[C@@]1(C)C3CC[C@H]4C(C)(C)[C@@H](O[C@H]5CN(C6COC6)CCO5)CC[C@@]45C[C@@]35CC[C@]21C)C(C)(C)O (stereo partly shown) | – | – | < 1000 nM | 25 to 75% | 25 to 75% | –
CC(=O)OC(C(C)C)C1C[C@@H](C)[C@H]2C(O1)[C@H](O)[C@@]1(C)C3CC[C@H]4C(C)(C)[C@@H](O[C@H]5CNCCO5)CC[C@@]45C[C@@]35CC[C@]21C (stereo partly shown) | < 1000 nM | 1000 to 10000 nM | < 1000 nM | – | – | IC50 [1, 5]: < 1000 nM; IC50 [2, 7]: 1000 to 10000 nM; IC50 [3, 9]: < 1000 nM
CCO[C@@H](C1C[C@@H](C)[C@H]2C(O1)[C@H](O)[C@@]1(C)C3CC[C@H]4C(C)(C)C(OC5CN(Cc6ccccc6)CCO5)CC[C@@]45C[C@@]35CC[C@]21C)C(C)(C)O (stereo partly shown) [drawing 1282] | 1000 to 10000 nM | 1000 to 10000 nM | 1000 to 10000 nM | – | – | IC50 [1, 5]: 1000 to 10000 nM; IC50 [3, 9]: 1000 to 10000 nM
CCO[C@@H](C1C[C@@H](C)[C@H]2C(O1)[C@H](O)[C@@]1(C)C3CC[C@H]4C(C)(C)C(O[C@H]5CN([C@@H](C)C(=O)O)CCO5)CC[C@@]45C[C@@]35CC[C@]21C)C(C)(C)O (stereo partly shown) | < 1000 nM | > 10000 nM | < 1000 nM | – | – | IC50 [1, 5]: < 1000 nM
CCO[C@@H](C1C[C@@H](C)[C@H]2C(O1)[C@H](O)[C@@]1(C)C3CC[C@H]4C(C)(C)C(OC(=O)NC)CC[C@@]45C[C@@]35CC[C@]21C)C(C)(C)O (stereo partly shown) | < 1000 nM | – | < 1000 nM | – | > 75% | –
CC(=O)N(Cc1ccccn1)CC1CC(C)C2C(O1)C(O)C1(C)C3CCC4C(C)(C)C(O)CCC45CC35CCC21C (stereo not shown) [drawing 1212] | – | – | – | – | – | IC50 [1, 10]: > 10000 nM; IC50 [2, 11]: > 10000 nM; IC50 [3, 13]: > 10000 nM
COC1C2OC(C(OC(=O)C3CC3)C(C)(C)O)CC(C)C2C2(C)CCC34CC35CCC(OC3CNCCO3)C(C)(C)C5CCC4C12C (stereo not shown) | – | – | – | – | – | IC50 [1, 10]: 1000 to 10000 nM; % Inh. (range) ([2]; Aβ-40, 20 μM): E^b (20 μM) (% inhibition of 25-75%); IC50 [3, 13]: 1000 to 10000 nM
COC(=O)NCC1C[C@@H](C)[C@H]2C(O1)[C@H](O)[C@@]1(C)C3CC[C@H]4C(C)(C)[C@@H](O)CC[C@@]45C[C@@]35CC[C@]21C (stereo partly shown) | – | – | > 10000 nM | 25 to 75% | 25 to 75% | –
CC(=O)O[C@@H](C1C[C@@H](C)C2C(O1)[C@H](O)[C@@]1(C)[C@@H]3CC[C@H]4C(C)(C)C(O)CC[C@@]45C[C@@]35CC[C@]21C)C(C)(C)C (stereo partly shown) | < 1000 nM | – | 1000 to 10000 nM | – | 25 to 75% | –
COC(=O)OCC1C[C@@H](C)[C@H]2C(O1)[C@H](O)[C@@]1(C)C3CC[C@H]4C(C)(C)[C@@H](O)CC[C@@]45C[C@@]35CC[C@]21C (stereo partly shown) | – | – | – | 25 to 75% | 25 to 75% | inhibition at 20 µM ([3]; Homo sapiens): 25 to 75%
C[C@@H]1CC(CN(C)C(=O)N(C)C)OC2[C@H]1[C@@]1(C)CC[C@@]34C[C@@]35CC[C@H](O)C(C)(C)[C@@H]5CCC4[C@]1(C)[C@H]2O (stereo partly shown) | – | – | 1000 to 10000 nM | 25 to 75% | 25 to 75% | –
CO[C@@H](C1C[C@@H](C)[C@H]2C(O1)[C@H](O)[C@@]1(C)C3CC[C@H]4C(C)(C)C(OC(=O)NC5CN(C)C5)CC[C@@]45C[C@@]35CC[C@]21C)C(C)(C)O (stereo partly shown) | < 1000 nM | 1000 to 10000 nM | < 1000 nM | – | – | IC50 [1, 5]: < 1000 nM; IC50 [2, 7]: 1000 to 10000 nM; IC50 [3, 9]: 1000 to 10000 nM
C[C@@H]1CC([C@@H](C(C)(C)O)S(C)(=O)=O)OC2[C@H]1[C@@]1(C)CC[C@@]34C[C@@]35CCC(O)C(C)(C)[C@@H]5CCC4[C@]1(C)[C@H]2O (stereo partly shown) | – | – | 1000 to 10000 nM | 25 to 75% | 25 to 75% | –
COCC1C[C@@H](C)[C@H]2C(O1)[C@H](O)[C@@]1(C)[C@@H]3CC[C@H]4C(C)(C)C(O[C@H]5CN(C6COC6)CCO5)CC[C@@]45C[C@@]35CC[C@]21C (stereo partly shown) | – | – | – | < 25% | < 25% | inhibition at 20 µM ([3]; Homo sapiens): < 25%
